Laboratory results reported in US7087642B2 (priority 1999, dated 2006).
Where two headings read alike, the source gives them in different places.

Key:
IMPDH human type II = IMPDH human type II (Homo sapiens, UniProt P12268); test: biochemical
human PBMC B cells = test: cells; format: cell-based; settings: read-out: B-cells (IC50)
human PBMC T cells = test: cells; format: cell-based; settings: read-out: T-cells (IC50)

SMILES	Ki (IMPDH human type II; read-out: Ki)	IC50 (human PBMC B cells)	IC50 (human PBMC T cells)	IC50 (human PBMC B cells; Homo sapiens, 72 h)	IC50 (human PBMC T cells; Homo sapiens, 72 h)	Ki (IMPDH human type II)
COc1cc(NC(=O)Nc2cccc(CNC(=O)O[C@H](CC#N)CN3CCOCC3)c2)ccc1-c1cnco1 [Compound 18]	< 10 nM	> 1000 nM	> 1000 nM			
CCN(CC)C[C@H](CC#N)OC(=O)NCc1cccc(NC(=O)Nc2ccc(-c3cnco3)c(OC)c2)c1 [Compound 19]	< 10 nM	100 to 1000 nM	100 to 1000 nM			
COc1cc(NC(=O)Nc2cccc(CNC(=O)O[C@@H](CC#N)CN3CCOCC3)c2)ccc1-c1cnco1 [Compound 20]	< 10 nM	100 to 1000 nM	100 to 1000 nM			
COc1cc(NC(=O)Nc2cccc(CNC(=O)O[C@@H](CC#N)CN(C)C)c2)ccc1-c1cnco1 [Compound 22]	< 10 nM			100 to 1000 nM	100 to 1000 nM	
COc1cc(NC(=O)Nc2cccc(CNC(=O)O[C@H](CCl)CC#N)c2)ccc1-c1cnco1 [Compound 23]	< 10 nM			< 100 nM	< 100 nM	
COc1cc(NC(=O)Nc2cccc(CNC(=O)OCCCl)c2)ccc1-c1cnco1 [Compound 24]	< 10 nM			> 1000 nM	> 1000 nM	
COc1cc(NC(=O)Nc2cccc(CNC(=O)OC(C)CC#N)c2)ccc1-c1cnco1 (stereo not drawn) [Compound 26]	< 10 nM			< 100 nM	< 100 nM	
CCC(CC#N)OC(=O)NCc1cccc(NC(=O)Nc2ccc(-c3cnco3)c(OC)c2)c1 (stereo not drawn) [Compound 27]	< 10 nM			< 100 nM	< 100 nM	
COc1cc(NC(=O)Nc2cccc(CNC(=O)O[C@@H](C)CC#N)c2)ccc1-c1cnco1 [Compound 28]	< 10 nM	100 to 1000 nM	100 to 1000 nM			
COc1cc(NC(=O)Nc2cccc(CNC(=O)O[C@H](C)CC#N)c2)ccc1-c1cnco1 [Compound 29]	< 10 nM	< 100 nM	< 100 nM			
COc1cc(NC(=O)Nc2cccc(CNC(=O)O[C@@H](C)CN(C)Cc3ccco3)c2)ccc1-c1cnco1 [Compound 30]	< 10 nM			100 to 1000 nM	> 1000 nM	
CCCC(CC#N)OC(=O)NCc1cccc(NC(=O)Nc2ccc(-c3cnco3)c(OC)c2)c1 (stereo not drawn) [Compound 32]	< 10 nM			< 100 nM	100 to 1000 nM	
CCCCC(CC#N)OC(=O)NCc1cccc(NC(=O)Nc2ccc(-c3cnco3)c(OC)c2)c1 (stereo not drawn) [Compound 33]	< 10 nM			100 to 1000 nM	100 to 1000 nM	
CNCCC(OC(=O)NCc1cccc(NC(=O)Nc2ccc(-c3cnco3)c(OC)c2)c1)c1ccccc1 (stereo not drawn) [Compound 34]	< 10 nM			100 to 1000 nM	> 1000 nM	
COc1cc(NC(=O)Nc2cccc(CNC(=O)OC(CCN(C)C)c3ccccc3)c2)ccc1-c1cnco1 (stereo not drawn) [Compound 35]	< 10 nM			100 to 1000 nM	100 to 1000 nM	
COc1cc(NC(=O)Nc2cccc(CNC(=O)OC(CC[N+](C)(C)C)c3ccccc3)c2)ccc1-c1cnco1 (stereo not drawn) [Compound 36]				> 1000 nM	> 1000 nM	< 10 nM
CCN(CC)CCC(OC(=O)NCc1cccc(NC(=O)Nc2ccc(-c3cnco3)c(OC)c2)c1)C(F)(F)F (stereo not drawn) [Compound 37]	< 10 nM			100 to 1000 nM	100 to 1000 nM	
CCCC(COC)OC(=O)NCc1cccc(NC(=O)Nc2ccc(-c3cnco3)c(OC)c2)c1 (stereo not drawn) [Compound 38]	< 10 nM			100 to 1000 nM	100 to 1000 nM	
COc1cc(NC(=O)Nc2cccc(CNC(=O)O[C@H](CCN(C)C)c3ccccc3)c2)ccc1-c1cnco1 [Compound 39]	< 10 nM	100 to 1000 nM	100 to 1000 nM			
COc1cc(NC(=O)Nc2cccc(CNC(=O)OC(CC#N)C(C)C)c2)ccc1-c1cnco1 (stereo not drawn) [Compound 40]	< 10 nM			100 to 1000 nM	> 1000 nM	
COCC(C)OC(=O)NCc1cccc(NC(=O)Nc2ccc(-c3cnco3)c(OC)c2)c1 (stereo not drawn) [Compound 41]	< 10 nM			100 to 1000 nM	100 to 1000 nM	
CCC(COC)OC(=O)NCc1cccc(NC(=O)Nc2ccc(-c3cnco3)c(OC)c2)c1 (stereo not drawn) [Compound 42]	< 10 nM			100 to 1000 nM	100 to 1000 nM	

SMILES	Ki (IMPDH human type II; read-out: Ki)	IC50 (human PBMC B cells)	IC50 (human PBMC T cells)	IC50 (human PBMC B cells; Homo sapiens, 72 h)	IC50 (human PBMC T cells; Homo sapiens, 72 h)	Ki (IMPDH human type II)
CCC(CCO)OC(=O)NCc1cccc(NC(=O)Nc2ccc(-c3cnco3)c(OC)c2)c1 (stereo not drawn) [Compound 43]	< 10 nM			100 to 1000 nM	100 to 1000 nM	
CCC(CCCO)OC(=O)NCc1cccc(NC(=O)Nc2ccc(-c3cnco3)c(OC)c2)c1 (stereo not drawn) [Compound 44]	< 10 nM			100 to 1000 nM	100 to 1000 nM	
COc1cc(NC(=O)Nc2cccc(CNC(=O)OC(CCO)CCC#N)c2)ccc1-c1cnco1 (stereo not drawn) [Compound 45]	< 10 nM			100 to 1000 nM	100 to 1000 nM	
COc1cc(NC(=O)Nc2cccc(CNC(=O)OC(CC#N)C(C)(C)C)c2)ccc1-c1cnco1 (stereo not drawn) [Compound 46]	< 10 nM			100 to 1000 nM	100 to 1000 nM	
COc1cc(NC(=O)Nc2cccc(CNC(=O)O[C@H](C)CCC#N)c2)ccc1-c1cnco1 [Compound 47]	< 10 nM			100 to 1000 nM	100 to 1000 nM	
COc1cc(NC(=O)Nc2cccc(CNC(=O)OC(CCN3CCOCC3)c3ccccc3)c2)ccc1-c1cnco1 (stereo not drawn) [Compound 48]	< 10 nM			100 to 1000 nM	100 to 1000 nM	
CCC(CCCCO)OC(=O)NCc1cccc(NC(=O)Nc2ccc(-c3cnco3)c(OC)c2)c1 (stereo not drawn) [Compound 49]	< 10 nM			100 to 1000 nM	100 to 1000 nM	
COc1cc(NC(=O)Nc2cccc(CNC(=O)OC(CCN3CCCCC3)c3ccccc3)c2)ccc1-c1cnco1 (stereo not drawn) [Compound 50]	< 10 nM			> 1000 nM	> 1000 nM	
COc1cc(NC(=O)Nc2cccc(CNC(=O)O[C@H](CN3CCOCC3)c3ccccc3)c2)ccc1-c1cnco1 [Compound 51]	< 10 nM			100 to 1000 nM	100 to 1000 nM	
COc1cc(NC(=O)Nc2cccc(CNC(=O)O[C@@H](CN3CCOCC3)c3ccccc3)c2)ccc1-c1cnco1 [Compound 52]	< 10 nM			> 1000 nM	> 1000 nM	
COc1cc(NC(=O)Nc2cccc(CNC(=O)O[C@@H](CO)CCC#N)c2)ccc1-c1cnco1 [Compound 57]	< 10 nM			100 to 1000 nM	100 to 1000 nM	
COc1cc(NC(=O)Nc2cccc(CNC(=O)OCCCOC(C)=O)c2)ccc1-c1cnco1 [Compound 58]	< 10 nM			100 to 1000 nM	100 to 1000 nM	
COc1cc(NC(=O)Nc2cccc(CNC(=O)O[C@H](CO)CCC#N)c2)ccc1-c1cnco1 [Compound 59]	< 10 nM			100 to 1000 nM	> 1000 nM	
CC[C@H](CO)OC(=O)NCc1cccc(NC(=O)Nc2ccc(-c3cnco3)c(OC)c2)c1 [Compound 60]	< 10 nM			100 to 1000 nM	100 to 1000 nM	
CC[C@@H](CO)OC(=O)NCc1cccc(NC(=O)Nc2ccc(-c3cnco3)c(OC)c2)c1 [Compound 61]	< 10 nM			100 to 1000 nM	100 to 1000 nM	
COc1cc(NC(=O)Nc2cccc(CNC(=O)O[C@@H](CO)CC#N)c2)ccc1-c1cnco1 [Compound 62]	< 10 nM			100 to 1000 nM	100 to 1000 nM	
COc1cc(NC(=O)Nc2cccc(CNC(=O)O[C@H](CO)CC#N)c2)ccc1-c1cnco1 [Compound 63]	< 10 nM			100 to 1000 nM	100 to 1000 nM	
CCC(CCN1CCOCC1)OC(=O)NCc1cccc(NC(=O)Nc2ccc(-c3cnco3)c(OC)c2)c1 (stereo not drawn) [Compound 65]	< 10 nM			100 to 1000 nM	100 to 1000 nM	
CCN(CC)C[C@H](OC(=O)NCc1cccc(NC(=O)Nc2ccc(-c3cnco3)c(OC)c2)c1)c1ccccc1 [Compound 66]	< 10 nM			> 1000 nM	> 1000 nM	
CCN(CC)C[C@@H](OC(=O)NCc1cccc(NC(=O)Nc2ccc(-c3cnco3)c(OC)c2)c1)c1ccccc1 [Compound 67]	< 10 nM			100 to 1000 nM	100 to 1000 nM	
CC[C@H](CCO)OC(=O)NCc1cccc(NC(=O)Nc2ccc(-c3cnco3)c(OC)c2)c1 [Compound 68]	< 10 nM	100 to 1000 nM	100 to 1000 nM			
CC[C@@H](CCO)OC(=O)NCc1cccc(NC(=O)Nc2ccc(-c3cnco3)c(OC)c2)c1 [Compound 69]	< 10 nM	100 to 1000 nM	100 to 1000 nM			
